This is an account of results in US5085991A, “Process of preparing purified aqueous indole solution” (Mitsui Toatsu Chemicals, Inc., priority 1987, dated 1992).

Like-named read-outs stand apart in the source and are kept apart here.

Data set [1] concerns the target tryptophan synthase (Escherichia coli, UniProt P0A879). Put plainly: Activity of immobilized tryptophan synthase source after standing in aqueous solutions of organic impurities. Format: biochemical, Escherichia coli MT-10232 (FERM BP-19). The note with it: for activity at 200 µg/mL: impurity 200 ppm, ratio to enzyme left in reference solution without organic substance; for activity at 200 µg/mL / activity at 1000 µg/mL / activity at 500 µg/mL / activity at 20 µg/mL / activity at 50 µg/mL: 30° C., pH 8.5; for activity at 1000 µg/mL: impurity 1000 ppm; for activity at 1000 µg/mL / activity at 500 µg/mL / activity at 20 µg/mL / activity at 50 µg/mL: ratio to enzyme left in reference solution; for activity at 500 µg/mL: impurity 500 ppm; for level at which the impurity inhibits tryptophan synthase: enzyme synthesizing tryptophan from indole and L-serine; for activity at 20 µg/mL: impurity 20 ppm; for activity at 50 µg/mL: impurity 50 ppm. The method, then: Escherichia coli MT-10232 (FERM BP-19), which is a tryptophan synthase-producing bacterium, was inoculated to 100 ml of the culture medium having the composition shown in Table 2 in a 500 ml flask, and was incubated at 35° C. for 24 hours. Two hundred milliliters (in two flasks) of the culture medium was inoculated to 15 1 of the culture medium having the composition shown in Table 3 in 30 1 of jar fermenter and was incubated at 35° C., pH 6.8 (adjusted with 28% aqueous ammonia) for 30 hours.
After the culture, the culture medium was centrifuged to collect 600 g wet weight of the bacterial cells. The cells were placed in a sealed container and restored in a refrigerator at 4° C., and were used for preparing the immobilized enzyme source.
One part of the above-described wet bacterial cells and one part of isotonic sodium chloride solution were mixed with stirring. On the other hand, 7.76 parts of distilled water and 0.24 parts of sodium alginate (NSPLL manufactured by Kibun Food Chemifa, Co., Ltd.) were mixed with stirring and pH thereof was adjusted to 8.5 with sodium hydroxide.
Two parts of the suspension of the cells and 8 parts of the sodium alginate solution were mixed with stirring and the resulting mixture was fed into a syringe and was dropped into a gelling solution from the tip of a needle with an inner diameter of 0.5 mm to 0.8 mm.
The particles formed by dropping the mixture into the gelling solution was matured under stirring in the gelling solution to obtain immobilized enzyme source.
To each of the aqueous solutions with a volume of 100 ml containing aniline, N-ethylaniline, o-ethylaniline, o-toluidine, 3-methylindole or 2-ethylindole in the amount shown in Table 4, […] of calcium chloride dihydrate and 1 mg of pyridoxal-5'-phosphate were added, and the pH thereof was adjusted to 8.5 with aqueous ammonia.
Further, as a reference solution, 100 ml of distilled water containing no organic substance was subjected to the same procedure as described above and the immobilized enzyme source was added thereto as mentioned above, followed by being left to stand at 30° C.
Twenty four hours later and 96 hours later, 1 g of immobilized enzyme source was removed from each of the solutions and the enzyme activity was determined. The ratio of the activity of the enzyme left in the solution of the organic substance to the activity of the enzyme left in the reference solution was determined and is shown in Table 4.
The enzyme activity was determined as follows:
Ten milliliters of reaction medium containing indole, L-serine, pyridoxal-5'-phosphate (PLP) and 0.3 g of the immobilized enzyme source was prepared and the reaction was conducted at 35° C. in a shaking incubator for 1 hour with shaking. The produced L-tryptophan was analyzed with high performance liquid chromatography.

The conditions of data set [2]: room temperature; cited from earlier work.
[3] abbreviates: 24 h, read-out: Activity Ratio 24 Hours Later.
Setting [4] is: 96 h, read-out: Activity Ratio 96 Hours Later.

Chain of tryptophan synthase (P0A879 2-397): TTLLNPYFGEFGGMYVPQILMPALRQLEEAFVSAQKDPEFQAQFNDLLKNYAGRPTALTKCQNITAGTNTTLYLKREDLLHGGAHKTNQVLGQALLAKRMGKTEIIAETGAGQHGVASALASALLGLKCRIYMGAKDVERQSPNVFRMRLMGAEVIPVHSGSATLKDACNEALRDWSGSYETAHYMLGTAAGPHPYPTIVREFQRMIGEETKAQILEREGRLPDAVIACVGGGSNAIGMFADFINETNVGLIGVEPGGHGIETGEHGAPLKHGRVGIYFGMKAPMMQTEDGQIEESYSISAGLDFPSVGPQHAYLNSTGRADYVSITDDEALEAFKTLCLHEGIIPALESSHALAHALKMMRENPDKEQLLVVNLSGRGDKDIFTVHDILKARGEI
Chain of tryptophan synthase (P0A877 whole entry, further chain): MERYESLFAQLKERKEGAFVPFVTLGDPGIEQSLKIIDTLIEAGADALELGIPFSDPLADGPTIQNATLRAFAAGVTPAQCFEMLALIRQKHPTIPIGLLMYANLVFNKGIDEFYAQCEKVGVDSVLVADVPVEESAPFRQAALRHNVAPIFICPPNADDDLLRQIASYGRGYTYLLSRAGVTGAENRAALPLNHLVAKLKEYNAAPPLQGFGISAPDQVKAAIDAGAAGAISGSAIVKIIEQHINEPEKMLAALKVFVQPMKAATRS

Consider `CCNc1ccccc1` [N-ethylaniline], for which, in data set [1] (setting [3]), the activity at 200 µg/mL is 104% and the activity at 1000 µg/mL amounted to 100%. In addition, in data set [1] (setting [4]), the activity at 200 µg/mL is 97% and the activity at 1000 µg/mL came to 89%.

Regarding `c1ccc2[nH]ccc2c1` [indole], the solubility in water in data set [2] was 3000 to 4000 µg/mL.

As for `Cc1c[nH]c2ccccc12` [3-methylindole], in data set [1] (setting [3]), the activity at 200 µg/mL was found to be 94% and the activity at 500 µg/mL is 94%. Further, in data set [1] (setting [4]), the activity at 200 µg/mL amounted to 89% and the activity at 500 µg/mL came to 84%. Also, the “level at which the impurity inhibits tryptophan synthase” value in data set [1] is given as “about 200 ppm”.

As for `CCc1cc2ccccc2[nH]1` [2-ethylindole], in data set [1] (setting [3]), the activity at 20 µg/mL worked out at 93%, the activity at 50 µg/mL worked out at 73% and the activity at 200 µg/mL was found to be 68%. Besides, in data set [1] (setting [4]), the activity at 20 µg/mL turned out to be 71%, the activity at 50 µg/mL came out at 54% and the activity at 200 µg/mL was determined as 48%. Besides, the “level at which the impurity inhibits tryptophan synthase” value in data set [1] is given as “about 20 ppm”.

With `Nc1ccccc1` [Aniline], in data set [1] (setting [3]), the activity at 200 µg/mL was determined as 98% and the activity at 1000 µg/mL came to 100%. Besides, in data set [1] (setting [4]), the activity at 200 µg/mL came to 101% and the activity at 1000 µg/mL turned out to be 82%.

`Cc1ccccc1N` [o-toluidine]: the activity at 200 µg/mL in data set [1] (setting [3]) came out at 97%; in data set [1] (setting [4]), 106%. The activity at 1000 µg/mL in data set [1] (setting [3]) was 88%; in data set [1] (setting [4]), 80%.

As for `CCc1ccccc1N` [o-ethylaniline], in data set [1] (setting [3]), the activity at 200 µg/mL worked out at 90% and the activity at 1000 µg/mL stood at 71%. Further, in data set [1] (setting [4]), the activity at 200 µg/mL came out at 77% and the activity at 1000 µg/mL was determined as 50%. The “level at which the impurity inhibits tryptophan synthase” value in data set [1] was “about 200 ppm”.
